How the values were obtained:
[1] = “free chlorine” (Hach Method 8021) and “total chlorine” (Hach Method 8167) in dosed simulated cooling water, Example 1; type: physicochemical; conditions: for Free Cl2 / Total Cl2 / % hydrolysis to Free Cl2: simulated cooling water pH 9.1, 38° C.
From the text: The standard tests for determination of “free chlorine” and “total chlorine” are based on classical test procedures devised by Palin in 1974. See A. T. Palin, “Analytical Control of Water Disinfection With Special Reference to Differential DPD Methods For Chlorine, Chlorine Dioxide, Bromine, Iodine and Ozone”, J. Inst. Water Eng., 1974, 28, 139. While there are various modernized versions of the Palin procedures, the version of the tests for “free chlorine” and “total chlorine” used and to be used as the standard in connection with this invention, are fully described in Hach Water Analysis Handbook, 3rd edition, copyright 1997. The procedure for “free chlorine” is identified in that publication as Method 8021 appearing on page 335, whereas the procedure for “total chlorine” is Method 8167 appearing at page 379. Briefly, the “free chlorine” test involves introducing to the halogenated water a powder comprising DPD indicator powder and a buffer. “Free chlorine” present in the water reacts with the DPD indicator to produce a red to pink coloration. The intensity of the coloration depends upon the concentration of “free chlorine” species present in the sample. This intensity is measured by a calorimeter calibrated to transform the intensity reading into a “free chlorine” value in terms of mg/L Cl2. Similarly, the “total chlorine” test also involves use of DPD indicator and buffer. In this case, KI is present with the DPD and buffer whereby the halogen species present, including nitrogen-combined halogen, reacts with KI to yield iodine species which turn the DPD indicator to red/pink. The intensity of this coloration depends upon the sum of the “free chlorine” species and all other halogen species present in the sample. Consequently, this coloration is transformed by the colorimeter into a “total chlorine” value expressed as mg/L Cl2.
DBDAH and BCDMH Test Procedure • 1. To determine the amount of species present in the water which respond to the “free chlorine” and “total chlorine” tests, the water sample should be analyzed within a few minutes of being taken, and preferably immediately upon being taken. • 2. Hach Method 8021 for testing the amount of species present in the water sample which respond to the “free chlorine” test involves use of the Hach Model DR 2010 calorimeter. The stored program number for chlorine determinations is recalled by keying in “80” on the keyboard, followed by setting the absorbance wavelength to 530 nm by rotating the dial on the side of the instrument. Two identical sample cells are filled to the 10 mL mark with the water under investigation. One of the cells is arbitrarily chosen to be the blank. Using the 10 mL cell riser, this is admitted to the sample compartment of the Hach Model DR 2010, and the shield is closed to prevent stray light effects. Then the ZERO key is depressed. After a few seconds, the display registers 0.00 mg/L Cl2. To second cell, the contents of a DPD Free Chlorine Powder Pillow are added. This is shaken for 10-20 seconds to mix, as the development of a pink-red color indicates the presence of species in the water which respond positively to the DPD test reagent. Within one minute of adding the DPD “free chlorine” reagent to the 10 mL of water in the sample cell, the blank cell used to zero the instrument is removed from the cell compartment of the Hach Model DR 2010 and replaced with the test sample to which the DPD “free chlorine” test reagent was added. The light shield is then closed as was done for the blank, and the READ key is depressed. The result, in mg/L Cl2 is shown on the display within a few seconds. This is the “free chlorine” level of the water sample under investigation. • 3. Hach Method 8167 for testing the amount of species present in the water sample which respond to the “total chlorine” test involves use of the Hach Model DR 2010 calorimeter. […]

heterotrophic bacteria = experiment: Cooling tower field trial, Example 2: heterotrophic bacteria plate counts; conditions: slug dose 3 times/week, 0.5 ppm free Cl2; cooling tower water
From the text: The effectiveness of DBDMH and of BCDMH in microbiological control in cooling tower water was investigated in comparative tests. The cooling tower consisted of two 500-ton units in a crossflow design. The total system-contained volume was 14,000 gallons, and the tower contained medium efficiency film fill. Water from the tower cooled the coils of two 300-ton air conditioners (chillers). The tower typically operated at a pH of about 9.1 and 4 cycles of concentration. Blowdown was controlled by conductivity. Make-up water consisted of softened city water and which was of good quality. The make-up water was very low in calcium (<10 mg/L) but high in pH (8.7). The alkalinity was 145 mg/L (as CaCO3), and the silica level was 28 mg/L. The tower employed a conventional polyphosphate/molybdate/phosphonate program to provide corrosion and deposit control.
The BCDMH (20 lbs) was introduced to the water using 20-gram, 1-inch tablets charged to a solid halogen feeder (Neptune model BT-40, Neptune Chemical Pump Co., Inc., Lansdale, Pa.). Before each dose, the cooling tower water was sampled and enumerated for heterotrophic bacteria plate counts. Then the tower was slug dosed three times a week with BCDMH. Slug dosing was accomplished by diverting through the feeder containing the tablets a sidestream of the recirculating water for about 1 to 5 hours until a “free chlorine” dose of about 0.5 mg/L (as “free chlorine”) was obtained. The “total chlorine” dose was measured at the same time. After each dose the cooling water was sampled and enumerated for heterotrophic bacteria plate counts. As necessary, the feeder was replenished with more BCDMH tablets.
For example, before the biocide dose the bacteria levels in the bulk water ranged from 10^5 to 10^4 CFUs/mL. After the biocide dose the bacteria levels in the bulk water were reduced to 10^4 to 10^3.
After emptying the feeder of BCDMH tablets, 20 lbs of DBDMH granules was charged into the feeder. Thereupon the same procedure as described above for the BCDMH was carried out except for the fact that is was unnecessary to add any additional DBDMH to the feeder during the 30-day test period. In fact, the total weight of DBDMH consumed during the test was only 7 lbs.

[2] = dosed to 1 mg/L as total chlorine, Time 0 hr
[3] = Time 0.5 hr, percentage of Time 0 value
[4] = Time 1 hr, percentage of Time 0 value
[5] = Time 1.5 hr, percentage of Time 0 value
[6] = Time 2 hr, percentage of Time 0 value
[7] = Time 3 hr, percentage of Time 0 value
[8] = Time 4 hr, percentage of Time 0 value
[9] = Time 5 hr, percentage of Time 0 value
[10] = Time 6 hr, percentage of Time 0 value

Free Cl2 [1, 2]: 98.8
Total Cl2 [1, 2]: 100
% hydrolysis to Free Cl2 ([1]; Time 0 hr): 98.8%
% hydrolysis to Free Cl2 ([1]; Time 0.5 hr): 95.6%
Free Cl2 [1, 3]: 100%
Total Cl2 [1, 3]: 104%
% hydrolysis to Free Cl2 ([1]; Time 1 hr): 97.3%
Free Cl2 [1, 4]: 85.1%
Total Cl2 [1, 4]: 87.3%
% hydrolysis to Free Cl2 ([1]; Time 1.5 hr): 100%
Free Cl2 [1, 5]: 87.3%
Total Cl2 [1, 5]: 87.3%
% hydrolysis to Free Cl2 ([1]; Time 2 hr): 97.2%
Free Cl2 [1, 6]: 81.6%
Total Cl2 [1, 6]: 83.9%
% hydrolysis to Free Cl2 ([1]; Time 3 hr): 93.8%
Free Cl2 [1, 7]: 70.1%
Total Cl2 [1, 7]: 74.7%
% hydrolysis to Free Cl2 ([1]; Time 4 hr): 93.8%
Free Cl2 [1, 8]: 65.5%
Total Cl2 [1, 8]: 66.6%
% hydrolysis to Free Cl2 ([1]; Time 5 hr): 96.4%
Free Cl2 [1, 9]: 60.1%
Total Cl2 [1, 9]: 63.2%
% hydrolysis to Free Cl2 ([1]; Time 6 hr): 96.3%
Free Cl2 [1, 10]: 59.8%
Total Cl2 [1, 10]: 62%
“total chlorine” level higher than the “free chlorine level” of the water ([1]; water of pH of at least 8 freshly treated): no more than 10%
SMILES: CC1(C)C(=O)N(Br)C(=O)N1Br [DBDMH, 1,3-dibromo-5,5-dimethylhydantoin]
Bacteria reduction (heterotrophic bacteria): 1.5-2 logs

From US7579018B2, “Microbiological control in aqueous systems” (Albemarle Corporation, priority 2000, dated 2009)
